Data: publication PMC10882974 (Environmental Science & Technology, 2024)
“Also recorded” adds a separate entry of the source. Counter-ions that a name gives are not always drawn.

Experiments:
[1] = tested on: Gammarus pulex, Nile tilapia, and Japanese Medaka; details: cited from earlier work
C. elegans [2] = experiment: toxicokinetics experiment III: effect of E. coli on uptake; format: in vivo, Caenorhabditis elegans; details: for BCF FLX (kinetic bioconcentration factor) / kt transformation rate constant of fluoxetine to norfluoxetine: exp III, 10 h
Procedure: (§1) In between cycles, the samples were kept on ice. […] Samples were stored at −20 °C until further analysis.
(§2) All parameters and units are summarized in SI A3.

[3] = as above; format: in vivo, Caenorhabditis elegans; details: 10 mg/L, k2f elimination rate constant of fluoxetine (k2FLX,sum), exp III, 10 h
Procedure: as §1, §2

[4] = stability of fluoxetine in S medium; details: 10 mg/L, 20 °C, 0.5-24 h
Procedure: After 0.5, 1, 2, 5, 10, and 24 h at 20 °C, samples of spiked medium were stored at −80 °C until analysis. […] Therefore, two replicates of the samples were washed three times with M9 buffer, while the other two were just centrifuged once, and the entire supernatant was removed.
E. coli containing pellets were resuspended in 250 μL of methanol and frozen in liquid nitrogen and then left at room temperature to thaw, followed by 5 min of sonication in a sonication bath. The freeze–thawing and sonication were repeated twice more and after this, samples were centrifuged at 15,000g for 15 min. The supernatant was stored at −20 °C until analysis.
Separation was performed on a UHPLC system (Shimadzu) with a Kinetex 1.7 μm C18 100 A LC column (150 mm × 2.1 mm, Phenomenex).

C. elegans [5] = experiment: toxicokinetics experiment I: elimination after 1 h exposure; format: in vivo, Caenorhabditis elegans; details: after 1 h exposure; no E. coli
Procedure: as §1, §2

[6] = as above; format: in vivo, Caenorhabditis elegans; details: whole organism (worm homogenate)
Procedure: as §1, §2

cyp35-a2 = cyp35-a2 gene expression (qRT-PCR); format: in vivo, Caenorhabditis elegans
Procedure: 1500 worms were collected in eppendorf tubes with 300 μL of RLT lysis buffer (Qiagen, Hilden, Germany) and homogenized using a Minilys homogenizer (Bertin Technologies) at middle speed four times for 20 s and kept on ice in between. Total RNA was isolated with the QIAshredder and RNeasy mini kits (Qiagen) according to the manufacturer’s protocol. The QuantiTect reverse transcription kit (Qiagen) was used for cDNA generation. RT-qPCR was performed on a Biorad CFX Opus 384 System using an iQ SYBR Green Supermix (Biorad) for amplification. The gene of interest was cyp35-a2, and cdc-42 was used as a housekeeping gene. Primers were generated by Biolegio (Nijmegen, The Netherlands); further details on the RT-qPCR and primers can be found in SI A7. Three biological replicates were used for each treatment.

[7] = tested on: marine mussels, freshwater mussels, Daphnia magna; details: cited from earlier work
C. elegans [8] = experiment: toxicokinetics experiment II: short-term uptake of different concentrations; format: in vivo, Caenorhabditis elegans; details: for BCF FLX (kinetic bioconcentration factor) / k1 uptake rate constant: exp II, no E. coli, 2 h
Procedure: as §1, §2

[9] = as above; format: in vivo, Caenorhabditis elegans; details: k2f elimination rate constant of fluoxetine (k2FLX,sum), exp II, no E. coli, 2 h
Procedure: as §1, §2

C. elegans [10] = experiment: toxicokinetics experiment IV: long-term exposure of L4 and adult worms
Procedure: (§3) Three replicates of 1500 pooled C. elegans were used for each time point for each concentration. For experiments with E. coli, the OD600 was kept constant at 0.4.
(§4) C. elegans containing pellets were resuspended in 500 μL of methanol, and 0.6 g of […] ceramic beads (1.4 mm) were added to the vial. The samples were homogenized three times for 20 s using a Minilys homogenizer (Bertin Technologies) at middle speed. In between cycles, the samples were kept on ice. […] The supernatant was transferred to a glass tube, the pellet (including the ceramic beads) was resuspended in 500 μL of methanol, and the homogenization, sonication, and centrifugation cycle was repeated twice more to result in a three-step extraction. The total combined supernatant was concentrated to dryness under a gentle nitrogen stream and redissolved in 500 μL of methanol to a final concentration of the IS of 1 μM. Samples were stored at −20 °C until further analysis.
(§5) A one-compartment model was selected since chemical concentrations could only be measured for the whole organism. […] All parameters and units are summarized in SI A3.
(§6) The kinetic bioconcentration factor[33] was calculated with eq 3, and the ke and kt were only included when applicable to the respective experiment [drawing 4] 3
(§7) Model fitting was performed by adding the ordinary differential equations to the BYOM modeling package version 6.3 (http://www.debtox.info/byom.html) in Matlab R2022b.[34] […] Optimization was performed with the Melder–Mead Simplex Search method, minimizing the minus log-likelihood. […] Model script deviations from the BYOM model can be found in SI A9.

[11] = as above; details: whole organism (worm homogenate), iv, exp IV, with E. coli, 48 h
Procedure: as §3, §4, §5, §6, §7

C. elegans [12] = experiment: norfluoxetine uptake and coexposure with fluoxetine (SI A5); format: in vivo, Caenorhabditis elegans; details: fluoxetine 5 and 20 mg/L with norfluoxetine 20 mg/L
Procedure: Alternatively, there could be a concentration-dependent increase in metabolism over time resulting from enzyme induction. This was modeled with an extra metabolism rate constant ke that was included after 10 h (eq 1a and Figure 4C,D).

[13] = with E. coli, 10 mg/L, k1, k2FLX, k2NF, kt constrained (eq 1b)
[14] = with E. coli, 10 mg/L, no constraint
[15] = combined experiments II, III, IV
[16] = exp IV, with E. coli, 0.5 mg/L, 48 h
[17] = exp IV, with E. coli, 20 mg/L, 48 h

CNCCC(Oc1ccc(C(F)(F)F)cc1)c1ccccc1 (centres unmarked) [fluoxetine, Fluoxetine hydrochloride]
k2 elimination rate [1]: 0.0008 to 0.08 h⁻¹
time to reach peak internal fluoxetine concentrations (C. elegans [2]; Figure 4): 2 to 5 h
effect of presence of bacteria on k2FLX,sum (C. elegans [2]; Figure 5): decreased to around half
BCF FLX (kinetic bioconcentration factor) (C. elegans [2]; no E. coli, 10 mg/L): 8.19
kt transformation rate constant of fluoxetine to norfluoxetine (C. elegans [2]; no E. coli, 10 mg/L): 0.05 h⁻¹
BCF FLX (kinetic bioconcentration factor) (C. elegans [2]; [13]): 8.19
kt transformation rate constant of fluoxetine to norfluoxetine (C. elegans [2]; [13]): 0.05 h⁻¹
BCF FLX (kinetic bioconcentration factor) (C. elegans [2]; [14]): 20.67
kt transformation rate constant of fluoxetine to norfluoxetine (C. elegans [2]; [14]): 0.065 h⁻¹
effect of presence of bacteria on internal concentration of fluoxetine (C. elegans [2]; experiment III, 10 mg/L): almost doubled
BCF versus presence of E. coli (C. elegans [2]; in vivo): BCF: positively correlated
k2 versus presence of E. coli (C. elegans [2]; in vivo): k2: negatively correlated
k el ([3]; whole organism (homogenate of pooled worms), no E. coli): 0.000461 s⁻¹
k el ([3]; whole organism (worm homogenate), with E. coli, k1, k2FLX, k2NF, kt constrained (eq 1b)): 0.000461 s⁻¹
k el ([3]; whole organism (worm homogenate), with E. coli, no constraint): 0.000111 s⁻¹
concentration of fluoxetine in S medium without C. elegans over time [4]: constant over time
elimination over time after transfer to clean medium (C. elegans [5]): almost all fluoxetine was eliminated after 6 h
k el ([6]; 1 h exposure (fluoxetine 0.5, 5, 20 mg/L; norfluoxetine 20 mg/L), then clean medium, no E. coli, read-out: k2sum elimination rate constant (+95% CI) (converted)): 0.000394 s⁻¹
k el ([6]; 1 h exposure, then clean medium, slow phase after 1 h, no E. coli, read-out: k2slow elimination rate constant (+95% CI) (converted)): 0.000131 s⁻¹
k el ([6]; calculated from k2sum and k2slow, read-out: k2fast elimination rate constant (converted)): 0.000264 s⁻¹
increase in CYP gene expression (cyp35-a2) over time (cyp35-a2; 0.5 mg/L fluoxetine): not observed
CYP gene expression (cyp35-a2) over time (cyp35-a2; 20 mg/L fluoxetine, observed for 24 h, not yet for 10 h): increase in CYP gene expression over time
BCF values in other species [7]: 100 to 10,000
BCF versus exposure concentration (C. elegans [8]; [15]): BCF: negatively correlated
k1 versus exposure concentration (C. elegans [8]; [15]): k1: negatively correlated
BCF FLX (kinetic bioconcentration factor) (C. elegans [8]; 0.5 mg/L, k2FLX constrained): 15.85
k1 uptake rate constant (C. elegans [8]; 0.5 mg/L, k2FLX constrained): 22.5 L/(kgnem h)
BCF FLX (kinetic bioconcentration factor) (C. elegans [8]; 0.5 mg/L, no constraint): 13.06
k1 uptake rate constant (C. elegans [8]; 0.5 mg/L, no constraint): 46.1 L/(kgnem h)
BCF FLX (kinetic bioconcentration factor) (C. elegans [8]; 5 mg/L, k2FLX constrained): 7.18
k1 uptake rate constant (C. elegans [8]; 5 mg/L, k2FLX constrained): 10.2 L/(kgnem h)
BCF FLX (kinetic bioconcentration factor) (C. elegans [8]; 5 mg/L, no constraint): 7.66
k1 uptake rate constant (C. elegans [8]; 5 mg/L, no constraint): 9.19 L/(kgnem h)
BCF FLX (kinetic bioconcentration factor) (C. elegans [8]; 20 mg/L, k2FLX constrained): 3.20
k1 uptake rate constant (C. elegans [8]; 20 mg/L, k2FLX constrained): 4.54 L/(kgnem h)
BCF FLX (kinetic bioconcentration factor) (C. elegans [8]; 20 mg/L, no constraint): 2.71
k1 uptake rate constant (C. elegans [8]; 20 mg/L, no constraint): 7.58 L/(kgnem h)
k el ([9]; whole organism (homogenate of pooled worms), 5 mg/L, k2FLX constrained (value of experiment I)): 0.000394 s⁻¹
k el ([9]; whole organism (homogenate of pooled worms), 5 mg/L, no constraint): 0.000333 s⁻¹
k el ([9]; whole organism (homogenate of pooled worms), 20 mg/L, k2FLX constrained (value of experiment I)): 0.000394 s⁻¹
k el ([9]; whole organism (homogenate of pooled worms), 20 mg/L, no constraint): 0.000778 s⁻¹
k el ([9]; whole organism (worm homogenate), 0.5 mg/L, k2FLX constrained (value of experiment I)): 0.000394 s⁻¹
k el ([9]; whole organism (worm homogenate), 0.5 mg/L, no constraint): 0.000981 s⁻¹
steady-state concentrations, L4 versus adult C. elegans (life stage) (C. elegans [10]; 0.5 and 20 mg/L, 48 h): did not show significant differences; also recorded: tested, but no effect (L4 vs adult)
IR (ingestion rate) versus (toxic) effect on feeding (C. elegans [10]; E. coli related, modeled with eq 1b): IR (ingestion rate): negatively correlated–neurotoxic effect
k2 versus CYP P450 induction (linked to exposure time) (C. elegans [10]; adding extra ke parameter over time): k2: positively correlated (adding extra ke parameter over time)
BCF FLX (kinetic bioconcentration factor) (C. elegans [10]; [16]): 24.66
k1 uptake rate constant (C. elegans [10]; [16]): 31.1 L/(kgnem h)
BCF FLX (kinetic bioconcentration factor) (C. elegans [10]; [17]): 6.36
k1 uptake rate constant (C. elegans [10]; [17]): 9.01 L/(kgnem h)
kt transformation rate constant of fluoxetine to norfluoxetine (C. elegans [10]; [17]): 0.056 h⁻¹
k el ([11]; 0.5 mg/L, k2f elimination rate constant of fluoxetine (k2FLX,sum)): 0.000336 s⁻¹
k el ([11]; 0.5 mg/L, ke extra metabolism rate constant after 10 h, 0.5 mg/L): 1.42e-05 s⁻¹
k el ([11]; 20 mg/L, k2f elimination rate constant of fluoxetine (k2FLX,sum)): 0.000233 s⁻¹
k el ([11]; 20 mg/L, ke extra metabolism rate constant after 10 h, 20 mg/L): 0.000144 s⁻¹
effect of coexposure with norfluoxetine on internal fluoxetine concentrations (C. elegans [12]): no significant differences; also recorded: tested, but no effect
